How the values were obtained:
Type in all cases: physicochemical
[1] = Solid stability (Test Example 2): purity after storage for 8 weeks under four conditions
Description: Each of (A) the α type crystal of biphenylcarboxylic acid hydrochloride (purity 99.8%) and (B) the γ type crystal of biphenylcarboxylic acid hydrochloride (purity 99.8%) were stored (1) at 40° C. for 8 weeks, (2) at 60° C. for 8 weeks, (3) at 40° C. and at a relative humidity of 75% for 8 weeks and (4) at 40° C. and at a relative humidity of 90% for 8 weeks.

[2] = Crystal form stability during preservation under usual conditions or medicine preparation steps; details: preservation under usual conditions (25° C., 60% relative humidity) or during pressurization, pulverization and like preparation steps
[3] = Solid stability (Test Example 1): purity after storage at 60° C., 75% relative humidity, 5 days; details: stored at 60° C. and relative humidity of 75% for 5 days; hydrochloride
Description: Each of (1) amorphous biphenylcarboxylic acid hydrochloride (purity: 97.22%), (2) α type crystal of biphenylcarboxylic acid hydrochloride (purity: 99.56%) and (3) β type crystal of biphenylcarboxylic acid hydrochloride (purity: 99.84%) was stored at 60° C. and at a relative humidity of 75% for 5 days. Purities after the storage were (1) 94.99%, (2) 99.55% and (3) 99.65%, respectively.

[4] = stored at 40° C. and relative humidity of 75% for 8 weeks
[5] = stored at 40° C. and relative humidity of 90% for 8 weeks

Row | Purity after the storage [1, 4] | Purity after the storage [1, 5] | Purity after the storage ([1]; stored at 40° C. for 8 weeks) | Purity after the storage ([1]; stored at 60° C. for 8 weeks) | Purity after the storage [3] | Molecule | Change of crystal form [2]
1 | 99.87% | 98.20% | 99.82% | 99.88% |  | 4′-{2-[(1S,2R)-2-hydroxy-2-(4-hydroxyphenyl)-1-methylethylamino]ethoxy}-3-isopropyl-3′,5′-dimethylbiphenylcarboxylic acid hydrochloride [γ type crystal] | do not cause mutual changes in the crystal forms
2 |  |  |  |  | 94.99% | Cc1cc(-c2ccc(C(=O)O)c(C(C)C)c2)cc(C)c1OCCN[C@@H](C)[C@H](O)c1ccc(O)cc1.Cl [amorphous biphenylcarboxylic acid hydrochloride] [4′-{2-[(1S,2R)-2-hydroxy-2-(4-hydroxyphenyl)-1-methylethylamino]ethoxy}-3-isopropyl-3′,5′-dimethylbiphenyl-4-carboxylic acid hydrochloride, reference compound] | 
3 | 99.58% | 99.51% | 99.79% | 99.78% | 99.55% | Cc1cc(-c2ccc(C(=O)O)c(C(C)C)c2)cc(C)c1OCCN[C@@H](C)[C@H](O)c1ccc(O)cc1.Cl [α type crystal, 4′-{2-[(1S,2R)-2-hydroxy-2-(4-hydroxyphenyl)-1-methylethylamino]ethoxy}-3-isopropyl-3′,5′-dimethylbiphenyl-4-carboxylic acid hydrochloride] | do not cause mutual changes in the crystal forms
4 |  |  |  |  | 99.65% | Cc1cc(-c2ccc(C(=O)O)c(C(C)C)c2)cc(C)c1OCCN[C@@H](C)[C@H](O)c1ccc(O)cc1.Cl [β type crystal, 4′-{2-[(1S,2R)-2-hydroxy-2-(4-hydroxyphenyl)-1-methylethylamino]ethoxy}-3-isopropyl-3′,5′-dimethylbiphenyl-4-carboxylic acid hydrochloride] | do not cause mutual changes in the crystal forms
